Experimental data taken from paper PMC5696560 (Bioorganic & Medicinal Chemistry Letters, 2017).
≈ marks a conversion by molar mass, not a printed value.

Legend:
[1] = Oral bioavailability in rats; settings: BioDuro LLC
[2] = system: M.tb strain H37Rv; assay: MABA: inhibition of growth of M.tb H37Rv under aerobic (replicating) conditions; assay type: cell-based; settings: Mycobacterium tuberculosis
[3] = system: M.tb strain H37Rv; assay: LORA: inhibition of growth of M.tb H37Rv under non-replicating conditions; assay type: cell-based; settings: Mycobacterium tuberculosis
Experimental: The compounds were evaluated for their inhibition of growth (measured as MIC90 values in µg/mL) against M.tb (strain H37Rv) under both replicating (MABA)[16] or non-replicating (LORA)[17] conditions. […] In a search for less lipophilic analogues, we prepared and evaluated compounds where this phenyl B-ring unit was replaced with different heterocycles of varying lipophilicity (Table 1).

COc1nc2ccc(Br)cc2cc1[C@@H](c1ccccc1)[C@@](O)(CCN(C)C)c1cccc2ccccc12 [Compound 1, bedaquiline, reference compound]
F(%) oral bioavailability [1]: 70% | MIC90 ([2]; H37RV): 0.05 µg/mL (≈ 0.09 µM) | MIC ([2]; M.tb H37Rv, replicating, read-out: MIC (MABA)): 0.05 µM (≈ 0.0278 µg/mL) | MIC90 [3]: 0.08 µg/mL (≈ 0.144 µM) | MIC ([3]; read-out: MIC (LORA)): 0.08 µM (≈ 0.0444 µg/mL)
